Common to all, as to assay: ≥ marks a high value that may be exact or a test limit, other limits are often not marked, values filed in µg/mL are converted to µM
For experiment [1], the system named is Escherichia coli K-12.
The test system of experiment [2] is Staphylococcus aureus UAMS-1.
Experiment [3] relates to Staphylococcus aureus.
Experiment [4] has as its system Escherichia coli DC2.
The test system of experiment [5] is Staphylococcus xylosus.
Experiment [6] has as its system Escherichia coli DH5alpha.
In experiment [7] the test system is Pseudomonas aeruginosa CMCCB 10104.
The test system of experiment [8] is Staphylococcus aureus ATCC 2592.
For experiment [9], the system named is Candida albicans ATCC 2002.
Experiment [10] deals with Escherichia coli ATCC 25922.
Experiment [11] deals with Micrococcus luteus MTCC 106.
Experiment [12] concerns Vibrio cholerae MTCC 3904.
For experiment [13], the system named is Batrachochytrium dendrobatidis JEL-197.
The test system of experiment [14] is Micrococcus luteus ATCC 9341.
Experiment [15] concerns Escherichia coli ATCC 2592.
The subject of experiment [16] is Staphylococcus aureus 1550.
The test system of experiment [17] is Pseudomonas aeruginosa ATCC 9027.
Experiment [18] concerns Staphylococcus aureus ATCC 6538.
The test system of experiment [19] is Aspergillus fumigatus KCTC 6145.
Experiment [20] relates to Aspergillus parasiticus KCTC 6598.
Experiment [21] concerns Pseudomonas aeruginosa ATCC 15692.
Experiment [22] deals with Trichosporon beigelii KCTC 7707.
Experiment [23] concerns Aspergillus awamori KCTC 6915.
Experiment [24] relates to Proteus vulgaris KCTC 2433.
The test system of experiment [25] is Listeria monocytogenes KCTC 3710.
The test system of experiment [26] is Aspergillus flavus KCTC 6905.
Experiment [27] has as its system Staphylococcus aureus ATCC 25923.
In experiment [28] the test system is Staphylococcus epidermidis ATCC 12228.
The test system of experiment [29] is Bacillus subtilis KCTC 1998.
Experiment [30] relates to Candida albicans KCTC 7270.
Experiment [31] has as its system Salmonella typhimurium KCTC 1926.
For experiment [32], the system named is Pseudomonas aeruginosa PAO1.
In experiment [33] the test system is Acinetobacter baumannii ATCC BAA-1794.
Experiment [34] has as its system Staphylococcus aureus ATCC 33592.
For experiment [35], the system named is Escherichia coli ATCC 51659.

≈ marks a conversion by molar mass, not a printed value. Where only a bound is given, the exact number is not on record here.

As to `CC[C@H](C)[C@H](NC(=O)[C@H](CCCCN)NC(=O)[C@H](CCC(=O)O)NC(=O)[C@H](CCCCN)NC(=O)[C@H](CO)NC(=O)[C@H](CCCCN)NC(=O)[C@H](CCCN=C(N)N)NC(=O)[C@H](Cc1ccccc1)NC(=O)[C@H](Cc1ccccc1)NC(=O)[C@H](CC(=O)O)NC(=O)CNC(=O)[C@H](CC(C)C)NC(=O)[C@@H](N)CC(C)C)C(=O)NCC(=O)N[C@@H](CCCCN)C(=O)N[C@@H](CCC(=O)O)C(=O)N[C@@H](Cc1ccccc1)C(=O)N[C@@H](CCCCN)C(=O)N[C@@H](CCCN=C(N)N)C(=O)N[C@H](C(=O)N[C@H](C(=O)N[C@@H](CCC(N)=O)C(=O)N[C@@H](CCCN=C(N)N)C(=O)O)C(C)C)[C@@H](C)CC` [LLGDFFRKSKEKIGKEFKRIVQR], the MIC was not below 160 µM in experiment [1], not below 160 µM in experiment [2], more than 24 µM in [3] and 9 µM (≈ 25.4 µg/mL) in [4].
Regarding `CC[C@H](C)[C@H](NC(=O)[C@H](CCCCN)NC(=O)[C@H](CCCCN)NC(=O)[C@@H](N)CCCCN)C(=O)N[C@H](C(=O)N[C@H](C(=O)N[C@H](C(=O)N[C@H](C(=O)N[C@H](C(=O)N[C@@H](CCCCN)C(=O)N[C@@H](CCCCN)C(=O)N[C@@H](CCCCN)C(=O)O)[C@@H](C)CC)[C@@H](C)CC)[C@@H](C)CC)[C@@H](C)CC)[C@@H](C)CC` [KKKIIIIIIKKK], the MIC came out at 0.5 µM (≈ 0.733 µg/mL) in [5] and 8 µM (≈ 11.7 µg/mL) in experiment [6].
In the case of `CC[C@H](C)[C@H](N)C(=O)N[C@@H](CC(C)C)C(=O)NCC(=O)N1CCC[C@H]1C(=O)N[C@H](C(=O)N[C@@H](CC(C)C)C(=O)NCC(=O)N[C@@H](CC(C)C)C(=O)N[C@H](C(=O)NCC(=O)N[C@@H](CC(N)=O)C(=O)N[C@@H](C)C(=O)N[C@@H](CC(C)C)C(=O)NCC(=O)NCC(=O)N[C@@H](CC(C)C)C(=O)N[C@H](C(=O)N[C@@H](CCCCN)C(=O)N[C@@H](CCCCN)C(=O)N[C@H](C(N)=O)[C@@H](C)CC)[C@@H](C)CC)C(C)C)C(C)C` [ILGPVLGLVGNALGGLIKKI], the MIC came to 10.3 µM (≈ 20 µg/mL) in [7], 5.14 µM (≈ 10 µg/mL) in [8], 2.57 µM (≈ 5 µg/mL) in experiment [9] and 10.3 µM (≈ 20 µg/mL) in experiment [10].
`CC(C)C[C@H](NC(=O)[C@H](Cc1cnc[nH]1)NC(=O)[C@@H](NC(=O)[C@H](CC(C)C)NC(=O)[C@@H]1CSSC[C@H](NC(=O)[C@H](CO)NC(=O)[C@H](Cc2ccccc2)NC(=O)[C@@H]2CCCN2C(=O)[C@@H](NC(=O)[C@@H]2CCCN2C(=O)[C@H](C)N)C(C)C)C(=O)N[C@@H]([C@@H](C)O)C(=O)N[C@@H](CCCN=C(N)N)C(=O)NCC(=O)N1)[C@@H](C)O)C(=O)N[C@H](C(=O)O)C(C)C` [APVPFSCTRGCLTHLV]: the MIC was determined as 6.3 µM (≈ 10.7 µg/mL) in experiment [11] and 25.4 µM (≈ 43.2 µg/mL) in experiment [12].
Turning to `CC[C@H](C)[C@H](NC(=O)[C@H](CCCCN)NC(=O)[C@H](CCCCN)NC(=O)[C@H](CC(C)C)NC(=O)[C@@H](NC(=O)[C@H](CCC(N)=O)NC(=O)CNC(=O)[C@H](C)NC(=O)[C@@H](NC(=O)CNC(=O)[C@H](C)NC(=O)[C@@H](NC(=O)[C@@H](NC(=O)[C@@H]1CCCN1C(=O)[C@H](Cc1ccccc1)NC(=O)[C@@H](N)Cc1ccccc1)[C@@H](C)CC)C(C)C)C(C)C)C(C)C)C(=O)N[C@@H](Cc1ccc(O)cc1)C(=O)N[C@H]1CSSC[C@@H](C(=O)O)NC(=O)[C@H](CCCCN)NC(=O)[C@H](CCCCN)NC(=O)[C@H](CO)NC(=O)[C@H]([C@@H](C)CC)NC(=O)[C@H]([C@@H](C)O)NC1=O` [FFPIVAGVAGQVLKKIYCTISKKC], the MIC in [13] is 20 µM (≈ 52.2 µg/mL); in experiment [10] it was 14 µM (≈ 36.6 µg/mL).
On to `CC(C)C[C@H](NC(=O)[C@@H](NC(=O)[C@H](CCCCN)NC(=O)[C@H](Cc1ccccc1)NC(=O)[C@@H](NC(=O)[C@@H](NC(=O)[C@H](CCCCN)NC(=O)[C@@H](N)CC(C)C)C(C)C)C(C)C)C(C)C)C(=O)N[C@@H](Cc1ccccc1)C(=O)N[C@@H](CCCCN)C(=O)O` [LKVVFKVLFK], for which the MIC in experiment [14] turned out to be 9.01 µM (≈ 11 µg/mL); in [15] it was 18 µM (≈ 22 µg/mL); in [16], 13.1 µM (≈ 16 µg/mL); in experiment [17] it was 13.1 µM (≈ 16 µg/mL); in experiment [18] it was 10.2 µM (≈ 12.5 µg/mL).
As for `CC[C@H](C)[C@H](NC(=O)[C@H](CCCCN)NC(=O)[C@H](CCCCN)NC(=O)[C@H](Cc1ccccc1)NC(=O)[C@H](CC(C)C)NC(=O)[C@H](CCCCN)NC(=O)[C@H](CCCCN)NC(=O)[C@H](CC(C)C)NC(=O)[C@H](CCCN=C(N)N)NC(=O)[C@H](CCCCN)NC(=O)[C@H](C)N)C(=O)N[C@@H](Cc1c[nH]c2ccccc12)C(=O)N[C@@H](CC(N)=O)C(=O)N[C@@H](Cc1c[nH]c2ccccc12)C(=O)N[C@@H](CCCCN)C(N)=O` [AKRLKKLFKKIWNWK], the MIC came to 8 µM (≈ 15.9 µg/mL) in [19]; 8 µM (≈ 15.9 µg/mL) in experiment [20]; 1 µM (≈ 1.99 µg/mL) in [21]; 16 µM (≈ 31.8 µg/mL) in experiment [22]; 16 µM (≈ 31.8 µg/mL) in experiment [23]; 4 µM (≈ 7.95 µg/mL) in experiment [24]. For the same compound, the minimal inhibitory concentration (MIC) in experiment [25] is 2 µM (≈ 3.97 µg/mL); in [26], 16 µM (≈ 31.8 µg/mL); in experiment [27] it was 2 µM (≈ 3.97 µg/mL); in experiment [28] it was 2.83 µM (≈ 5.62 µg/mL); in experiment [29] it was 2 µM (≈ 3.97 µg/mL); in experiment [10] it was 4 µM (≈ 7.95 µg/mL). In addition, the MIC in experiment [30] worked out at 8 µM (≈ 15.9 µg/mL); in [31], 1 µM (≈ 1.99 µg/mL).
As to `CC(C)C[C@H](NC(=O)[C@H](CCCCN)NC(=O)[C@H](CCC(=O)O)NC(=O)[C@H](CCCCN)NC(=O)[C@@H](NC(=O)[C@H](CCCCN)NC(=O)[C@H](CCCCN)NC(=O)[C@H](Cc1ccccc1)NC(=O)[C@H](Cc1cnc[nH]1)NC(=O)[C@H](CCC(=O)O)NC(=O)[C@H](CO)NC(=O)[C@H](Cc1ccccc1)NC(=O)[C@H](Cc1c[nH]c2ccccc12)NC(=O)[C@H](CC(N)=O)NC(=O)[C@H](CCCN=C(N)N)NC(=O)[C@@H](NC(=O)[C@@H](N)CCCCN)[C@@H](C)O)C(C)C)C(=O)N[C@@H](CCCCN)C(=O)N[C@@H](CC(=O)O)C(=O)N[C@H](C(=O)N[C@@H](Cc1ccccc1)C(=O)N[C@@H](C)C(=O)O)[C@@H](C)O` [KTRNWFSEHFKKVKEKLKDTFA], the MIC is more than 90.3 µM in [32], not below 90.3 µM in [33], not below 90.3 µM in experiment [34] and not below 90.3 µM in [35].

(Values after DBAASP.)
